From patent US12115141B2, “Diagnosis of diabetes by detecting aggregated amylin in erythrocytes” (University of Kentucky Research Foundation, priority 2018, dated 2024)
Where two headings read alike, the source gives them in different places. Where no end group is shown, it is not given here.

What was measured:
amylin = molecular target: T1, amylin (Homo sapiens, UniProt P10997); test: Amylin aggregation with 14,15-EET (FIG. 15A); format: biochemical
T1 construct: is a 37-amino acid peptide synthesized and co-secreted with insulin
T1 sequence (P10997 34-70 limits assumed): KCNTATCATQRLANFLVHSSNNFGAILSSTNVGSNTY

cardiac myocytes = test: Amylin incorporation in cardiac myocytes ex vivo (FIG. 15B); format: cell-based
Protocol: Cardiac myocytes were isolated from rats in all rat groups. Isolated myocytes are used for testing myocyte accumulation of amylin (by ELISA and Western blot, as shown before^8,10), sarcolemmal structural integrity (dye leakage assay, electron microscopy, LC-MS/MS and fluorescent markers) and myocyte Ca^2+ cycling (see below). Each experiment is performed on hearts/myocytes from a number of rats/group. Calculation of the minimum sample size with a two-tail t-test considering α=0.05 and 1−β=0.8; performed with GPower 3.1.9.2.

[1] = test system: RBCs / cultured vascular endothelial cells; test: RBC adhesion assay on cultured vascular endothelial cells; format: cell-based, rat
Protocol: RBCs collected from each HIP rat group (normal, pre-diabetes, diabetes, ±high-fat diet) are infused into AKO rats (300 μL RBCs, daily, 7 days, q.d., via the tail vein). Because diabetes develops later (by 6 mo) in female vs. male HIP rats, AKO rats are matched for age and sex to HIP rats providing the RBCs for infusion. At the end of infusion period, rats are sacrificed, perfused with saline through a catheter implanted into the right external jugular vein to wash out the blood from blood vessels, followed by heart collection and paraffin embedding. Confocal microscopy is used to identify the attachment of amylin-loaded RBCs to vascular endothelium (as in FIG. 5A). Before analysis, heart sections are incubated with 1% Sudan black to block autofluorescence. Control sections with either omitted primary or secondary antibodies are used to establish specific staining. […] Adherence is calculated as percentage of optical density of adhered Hb (as in FIG. 5C).
In some embodiments, adult rat microvascular endothelial cells (RA-6024, Cell Biologics, IL) were cultured on 96-wells cell culture plate coated with cell attachment factor solution (123-100, Sigma, MO). […] The amount of hemoglobin in each well was measured from the optical density (OD) as described above. Adherence was calculated as the percentage of OD of adhered hemoglobin/(OD of total hemoglobin×dilution factor).

HIP rats = details: cited from earlier work
WT rat RBCs = test: RBC shape by flow cytometry after incubation with human amylin; format: cell-based
Protocol: In all rat groups (±high-fat diet), the RBC shape distributions are analyzed by FACScan flow cytometry (Becton Dickinson LSRII) as a function of characteristic RBC amylin levels, as in FIG. 4D. The Pearson coefficient of dissymmetry (PCD) shown in FIG. 4D reflects the sphericity of RBCs (PCD=0 indicates RBC spherical shape).
In some embodiments, RBCs (1×10^7 cells) were aliquoted to assay tubes, washed twice with 2 mL incubation buffer (0.5% BSA in PBS), and resuspended in 100 μL incubation buffer. RBCs were incubated with an anti-amylin antibody (1:200, T-4157, Bachem-Peninsula Laboratories, CA) for 1 hour on ice, washed twice with PBS by centrifugation at 1000×g for 1 minute and then incubated with goat anti-rabbit Alexa Fluor® 488 (A11029, Invitrogen, MA) for 30 min on ice. RBCs were then washed twice before re-suspension in 200 μl PBS, and analyzed by flow cytometer (Becton Dickinson LSRII) within 90 min. To assess the cell shape, RBCs were first gated on a forward scatter (FSC)/side scatter (SSC) plot. The R1 events arevisualized using a FSC-A/FSC-H dot plot. For detecting amylin deposited on RBCs, the cells were first gated on a forward scatter (FSC)/side scatter (SSC) plot. RBCs were further gated to determine the amylin signal (Alexa 488), using negative control (no antibody) and positive control to set the upper and lower boundaries.

diabetic UCD rats = test: Intravenous aggregated human amylin in diabetic UCD rats; format: in vivo, rat
Protocol: To examine further a possible ‘amylin stress” on oxygen-sensing pathways, aggregated human amylin (hA) (0.08 μg/g body weight) was intravenously administered to diabetic UCD rats, daily, for one week. […] This acute “amylin stress” provoked an increase in plasma EPO level (FIG. 23E; the “after hA inj” rat group) and no difference in renal HIF-2α and HIF-1α levels in whole kidney tissue homogenate (FIG. 23F).

AKO mice = details: cited from earlier work; for amylin deposits in the myocardium: i.v. q.d., 7 days
[2] = kidney tissue homogenates, FIG. 23G

Compound: CCCCCC1OC1C/C=C\C/C=C\C/C=C\CCCC(=O)O (racemic) [14,15-EET, (±)14(15)-EET]
- amylin aggregation (amylin): reduced
- amylin incorporation in cardiac myocytes (cardiac myocytes): reduced
- adhesion of HIP rat RBCs to cultured endothelial cells ([1]; ex vivo incubation, FIG. 22D): reduced

Compound: CC(=O)N1CCC(NC(=O)NC23CC4CC(CC(C4)C2)C3)CC1 [APAU]
- amylin incorporation into RBCs and cardiac myocytes (HIP rats; pre-diabetic HIP rats): lower
- heart function (HIP rats; pre-diabetic HIP rats, prior study): improved
- levels of aggregated amylin in blood and cardiac myocytes (HIP rats; pre-diabetic male HIP rats, 10 weeks, prior study): lower levels

Compound: human amylin: 37-amino acid amyloid-forming peptide (islet amyloid polypeptide; IAPP), used recombinant/synthetic, aggregated (KCNTATCATQRLANFLVHSSNNFGAILSSTNVGSNTY)
- RBC adherence to cultured endothelial cells ([1]; WT rat RBCs incubated 50 μmol/L, 2 h, FIG. 5C): increased
- structural change of RBCs (rounded shape) (WT rat RBCs; 50 μmol/L, 2 h): replicated
- morphological change of RBCs (PCD) (WT rat RBCs; 4 hours, FIG. 27): replicated
- amylin deposition on RBCs (diabetic UCD rats; 0.08 μg/g body weight i.v. daily, one week, FIG. 23D): amylin deposition on RBCs
- plasma EPO level (diabetic UCD rats; 0.08 μg/g i.v. daily, one week, vs baseline, FIG. 23E): increase
- Arginase 1 protein levels (diabetic UCD rats; [2]): elevated
- arginase 2 protein expression (diabetic UCD rats; [2]): no significant change
- renal HIF-2α and HIF-1α levels (diabetic UCD rats; whole kidney tissue homogenate, FIG. 23F): no difference
- Sarcolemmal Ca2+ leak and Ca2+ transients (AKO mice; females): no significant changes
- amylin deposits in the myocardium (AKO mice): showed amylin deposits in the myocardium
- Sarcolemmal Ca2+ leak and Ca2+ transients (AKO mice; myocytes from male AKO mice): increased

Compound: rodent amylin: non-amyloidogenic (i.e., monomeric) rodent amylin (KCNTATCATQRLANFLVRSSNNLGPVLPPTNVGSNTY; ends and bridges not checked; cysteine pairing not given here; UniProt P12969 38-74, looked up)
- amylin deposits in the myocardium (AKO mice): not
- Sarcolemmal Ca2+ leak and Ca2+ transients (AKO mice; rat amylin-infused mice): no significant changes
